Test results as given in patent publication US10513499B2, “Inhibitors of alpha-amino-beta-carboxymuconic acid semialdehyde decarboxylase” (TES Pharma S.r.l., priority 2014, dated 2019).
Entries after “also recorded” stand apart in the source; their conditions may differ.

Key:
[1] = tested on: SOD2 activity in primary murine hepatocytes; test: Modulation of SOD2 activity in murine primary hepatocytes; assay type: cell-based, mouse; details: for SOD2 activity: primary murine hepatocytes, 24 hours
Procedure: Primary hepatocytes or AML-12 cells are lysed and total protein concentration is determined using the Bradford assay. SOD2 activity is determined at indicated times after treatment with a compound of Formula (I), Formula (Ia), Formula (Ib), Formula (II), or Formula (III), or a pharmaceutically acceptable salt thereof, using a SOD Assay Kit. Absorbance is determined and results are expressed in U/ml/mg of protein according to the standard curve and measured protein concentration.
Primary hepatocytes were prepared from 8-12-week-old C57BL/6J mice by collagenase perfusion method. Mouse livers were perfused with Hank's balanced salt solution (HBSS, KCl, 5.4 mM; KH2PO4, 0.45 mM; NaCl, 138 mM; NaHCO3, 4.2 mM; Na2HPO4, 0.34 mM; glucose, 5.5 mM; […]; EGTA, 50 mM; CaCl2, 50 mM; pH 7.4). Livers were then washed at a rate of 5 ml/min through the portal vein. After washing, livers were perfused with collagenase (0.025%) solution. Cell viability was assessed by the trypan blue method. Isolated primary hepatocytes were plated with DMEM medium (Gibco) including 10% FCS, 10 units per ml penicillin and HEPES for buffering. The cells were maintained in culture at 37° C. in a humidified atmosphere of 5% CO2/95% air. After 6-8 hrs of attachment, this medium was replaced with media containing different concentrations of an ACMSD inhibitor (i.e., Compound 1 or Compound 17) or with the corresponding concentration of DMSO (as a control). […]
(§1) Primary hepatocytes or AML-12 cells were then lysed in a 20 mM HEPES buffer (Gibco), pH 7.2, containing 1 mM EGTA (Sigma), 210 mM mannitol (Sigma), and 70 mM sucrose (AMRESCO). Total protein concentration was determined using the Bradford assay (BioRad). SOD-2 activity was determined at indicated times after ACMSD inhibitor treatment by the SOD Assay Kit (Cayman Chemical) according to the manufacturer's instructions. […] Absorbance was determined with a Victor X4 multi-label plate reader (Perkin-Elmer) at 450 nm. Results are expressed in U/ml/mg of protein according to the standard curve and measured protein concentration.

[2] = tested on: HePG2 cells; test: Cytotoxicity in HePG2 cells (LDH release, ATP level); assay type: cell-based; details: 10 nM to 300 μM, 4 hrs
Procedure: (§2) HePG2 and AML-12 cells are seeded and a dose-response of the compound is performed at various concentrations. Cells are stimulated and the supernatant is used to perform LDH release as a measure of necrosis while the cells are lysed to detect ATP levels for determining cell viability.
(§3) Cytotoxicity: 20000 HePG2 and AML-12 cells were seeded in 96 well plate (Viewplate PerkinElmer). Dose-response of the compound in Table 2 was performed using HP D300 digital dispenser, ranging from 10 nM to 300 μM with constant DMSO 1% in medium. Cells were stimulated for 4 hrs at 37° C.; the supernatant was used to perform LDH release (Cytotox-one, Promega) as a measure of necrosis while the cells were lysed to detect ATP level for determining cell viability (Celltiter-glo, Promega) according to manufacturer's instructions.

[3] = tested on: Hepa-1.6 cells; test: RT-qPCR analysis of SIRT1-regulated genes in Hepa-1.6 cells; assay type: cell-based; details: 24 hrs
Procedure: (§4) Cells (AML-12, Hepa-1.6, HEK-293, primary human and murine hepatocytes) are treated with different concentrations of a compound of Formula (I), Formula (Ia), Formula (Ib), Formula (II), or Formula (III), or a pharmaceutically acceptable salt thereof and the gene expression of ACMSD, Pgc1a, Sod1, and Sod2 (MnSOD) is determined using RT-qPCR. Total RNA is extracted from cells and the extracted RNA is treated with DNase and used for reverse transcription (RT).
(§5) Gene expression of ACMSD and genes known to be regulated by SIRT1, (an enzyme that is strictly NAD^+ dependent) such as Pgc1a, Sod1, Sod2 (MnSOD), were analysed in AML-12 cells, Hepa-1.6 cells and primary murine hepatocytes treated with Compound 1 or 17.
(§6) Cells (AML-12, Hepa-1.6, HEK-293, primary human and murine hepatocytes) were treated with different concentrations of Compound 1 or Compound 17. Total RNA was extracted from cells using TRIzol (Invitrogen) according to the manufacturer's instructions. The RNA was treated with DNase, and 2 μg of RNA was used for reverse transcription (RT). 50× diluted cDNA was used for RT-quantitative PCR (RT-qPCR) reactions. The RT-qPCR reactions were performed using the Light-Cycler system (Roche Applied Science) and a qPCR Supermix (QIAGEN) with the indicated primers. The average of at least three technical repeats was used for each biological data point.

[4] = tested on: FoxO1 phosphorylation at Ser256; test: FoxO1 phosphorylation levels in AML-12 cells (western blot); assay type: cell-based, mouse; details: 24 hours, increasing dose
Procedure: AML-12 cells are treated with different concentrations of a compound of Formula (I), Formula (Ia), Formula (Ib), Formula (II), or Formula (III), or a pharmaceutically acceptable salt thereof. Cells are then lysed, and analyzed by SDS-PAGE/western blot. Blocking and antibody incubations are then done and each protein present is detected with its specific antibody.
AML-12 cells were treated with different concentrations of Compound 1 or Compound 17 for 24 hours. Cells were then lysed in lysis buffer (50 mM Tris, 150 mM KCl, EDTA 1 mM, NP40 1%) containing protease and phosphatase inhibitors, and analyzed by SDS-PAGE/western blot. Blocking and antibody incubations were done in 5% milk. Each protein present was detected with its specific antibody. Tubulin antibody was obtained from Sigma Inc, FoxO1 and phopho-FoxO1 (Ser256) antibodies were obtained from Cell Signaling. Antibody detection reactions were developed by enhanced chemiluminescence (Advansta, Calif., USA) using x-ray films.

[5] = target: ACMSD-1 (Homo sapiens (Human), UniProt Q8TDX5); test: ACMSD-1 modulation in HEK293T cells transiently expressing ACMSD; assay type: cell-based; details: about 50 nM to about 5 uM; stimulated 48 hrs to 72 hrs
ACMSD-1, sequence (Q8TDX5 whole entry): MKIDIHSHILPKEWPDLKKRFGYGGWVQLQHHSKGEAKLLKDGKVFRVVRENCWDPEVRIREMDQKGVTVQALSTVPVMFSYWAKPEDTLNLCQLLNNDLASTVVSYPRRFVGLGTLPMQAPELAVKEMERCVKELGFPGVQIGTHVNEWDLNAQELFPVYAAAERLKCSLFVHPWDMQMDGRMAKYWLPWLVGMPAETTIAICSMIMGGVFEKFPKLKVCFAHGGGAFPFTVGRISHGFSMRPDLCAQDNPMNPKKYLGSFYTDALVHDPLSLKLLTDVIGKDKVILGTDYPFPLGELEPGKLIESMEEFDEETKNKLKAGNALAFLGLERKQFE
Procedure: HEK293T cells are seeded and transfected to transiently express ACMSD. The cells are then stimulated with different concentrations of Compound 1, and then lysed to measure the ACMSD activity in a spectrophotometrical in vitro assay. The amount of the whole protein content in cell lysates is detected by Bradford analysis and used to get the specificity activity of the enzyme normalized in all samples.
HEK293T cells (ATCC) were seeded in six-well plates and transfected using Fugene HD to express transiently ACMSD. 24 hrs post transfection, the cells were stimulated for 48 hrs to 72 hrs with different concentrations of Compound 1 and then lysed to measure the ACMSD activity, by measuring the conversion of 30H-Anthranilic Acid into product (i.e. α-amino-beta-carboxymuconate-ε-semialdehyde, ACMS) in a spectrophotometrical in vitro assay. The amount of the whole protein content in cell lysates was detected by Bradford analysis. This value was used to get the specificity activity of the enzyme normalized in all samples (mU/ml or ΔE/Δt/mg of total protein).
Having determined the optimum stimulation time and transfection protocol cells were stimulated with different concentrations of Compound 1 (about 50 nM to about 5 uM).

[6] = tested on: SOD2 activity in AML-12 cells; test: Modulation of SOD2 activity in AML-12 cells; assay type: cell-based, mouse; details: 24 hours
Procedure: Primary hepatocytes or AML-12 cells are lysed and total protein concentration is determined using the Bradford assay. SOD2 activity is determined at indicated times after treatment with a compound of Formula (I), Formula (Ia), Formula (Ib), Formula (II), or Formula (III), or a pharmaceutically acceptable salt thereof, using a SOD Assay Kit. Absorbance is determined and results are expressed in U/ml/mg of protein according to the standard curve and measured protein concentration. […]
as §1

[7] = tested on: AML-12 cells; test: Cytotoxicity in AML-12 cells (LDH release, ATP level); assay type: cell-based, mouse; details: 10 nM to 300 μM, 4 hrs
Procedure: as §2, §3

[8] = tested on: AML-12 cells; test: RT-qPCR analysis of SIRT1-regulated genes in AML-12 cells; assay type: cell-based, mouse; details: 24 hrs
Procedure: as §4, §5, §6

[9] = tested on: human primary hepatocytes; test: NAD+ content in human primary hepatocytes by LCMS/MS; assay type: cell-based; details: tested at 0.5 μM and 5 μM; compound replaced every 24 hrs
Procedure: Primary hepatocytes are treated with different concentrations of a compound of Formula (I), Formula (Ia), Formula (Ib), Formula (II), or Formula (III), or a pharmaceutically acceptable salt thereof, or MEHP (control) after seeding. The compound is replaced every 24 hours, and then cells are directly harvested and lysed to detect NAD^+ content through LC MS/MS (liquid chromatography mass spectrometry/mass spectroscopy).
The NAD^+ concentration or content was determined in human primary hepatocytes treated with Compound 4. Vehicle (NT) was used as a control.
At least three experiments were run treating primary hepatocytes with different concentrations of Compound 4 (0.5 μM and 5 μM) after 48 hrs from seeding. Compound 4 was replaced every 24 hrs, and then cells were directly harvested and lysed with ACN/H2O (ratio 5:1). LCMS/MS was used to detect and measure NAD^+ concentration/content. […] (FIG. 1)
The NAD^+ concentration or content was determined in human primary hepatocytes treated with Compound 1 and MEHP, a known ACMSD inhibitor. MEHP was used as a control.
At least three experiments were run treating primary hepatocytes with different concentrations of Compound 1 (0.5 μM, 5 μM, and 50 μM) after 48 hrs from seeding. Compound 1 was replaced every 24 hrs, and then cells were directly harvested and lysed with ACN/H2O (ratio 5:1). […]

[10] = tested on: primary mouse hepatocytes; test: RT-qPCR analysis of SIRT1-regulated genes in primary mouse hepatocytes; assay type: cell-based; details: 24 hrs, 5 nM-500 nM range
Procedure: as §4, §5, §6

[11] = tested on: murine primary hepatocytes; test: NAD+ content in murine primary hepatocytes (HPLC, mass-spectrometry); assay type: cell-based, mouse; details: 5 nM, 10 nM and 50 nM for 24 hours
[12] = tested on: MDCK cells; test: Modulation of cisplatin-induced caspase 3/7 activity in MDCK cells; assay type: cell-based; details: for EC50: Canis lupus familiaris, MDCK
Procedure: MDCK cells are cultured in base medium to a final concentration of 10%. Cells are plated into 96 wells and 24 hours after cell plating the medium is changed with fresh medium supplemented with 1% FBS. Cisplatin is then used to induce cell injury. Different concentrations of Formula (I), Formula (Ia), Formula (Ib), Formula (II), or Formula (III), or a pharmaceutically acceptable salt thereof (in DMSO) are added in combination with cisplatin or prior to adding cisplatin. Caspase 3/7 activity (Promega) is determined according to standard procedures using a luminescent signal readout on a plate reader. Each experiment/condition is performed in triplicate. Caspase activity is analyzed as percentage effect normalized to the cisplatin alone and vehicle treated cells.
An in vitro study was performed to determine the effects of compounds of Formula (I), Formula (Ia), Formula (Ib), Formula (II), or Formula (III), or a pharmaceutically acceptable salt thereof, on Acute Kidney Injury in MDCK cells.
MDCK cells (MDCK (NBL-2) ATCC® CCL-34™) were cultured in base medium ATCC-formulated Eagle's Minimum Essential Medium, Catalog No. 30-2003 with fetal bovine serum (FBS) to a final concentration of 10%. 10,000 cells were plated into 96 wells and 24 hours after cell plating the medium was changed with fresh medium supplemented with 1% FBS. Cisplatin (50 μM for 16 hrs) was then used to induce cell injury. Different concentrations of Compound 18 (in 1% DMSO) were added in combination with cisplatin (FIG. 1) or 1 hour prior adding cisplatin (FIG. 2).
Caspase 3/7 activity (Promega) was determined according to standard procedures using a luminescent signal readout on a Victor V plate reader (PerkinElmer). Each experiment/condition was performed in triplicate.
Caspase activity was analyzed as percentage effect normalized to the cisplatin alone (100%) and vehicle treated cells as 0% of caspase activity. Data were analyzed by GraphPad Software. One-way analysis of variance (Dunnett's Multiple Comparison test) was used for statistical analyses.

## N#Cc1c(-c2ccccc2)nc(SCc2cccc(C(=O)O)c2)[nH]c1=O [Compound 1]
[1]
  SOD2 activity: induced in a dose-dependent manner
[2]
  Cytotoxicity Hep-G2: Not Toxic
[3]
  Sod2 mRNA levels: increased in a dose-dependent manner
[4]
  FoxO1 phosphorylation at Ser256: decrease
[5]
  ACMSD-1 activity in over-expression cell-based assay: inhibited ACMSD-1 activity, in a dose dependent manner
[6]
  SOD2 activity: induced in a dose-dependent manner
[7]
  Cytotoxicity AML-12: Not Toxic
[8]
  Sod2 mRNA levels: increased in a dose-dependent manner

## N#Cc1c(-c2cccs2)nc(SCc2cccc(C(=O)O)c2)[nH]c1=O [Compound 4]
[2]
  Cytotoxicity Hep-G2: Not Toxic
[7]
  Cytotoxicity AML-12: Not Toxic
[9]
  concentration at which ACMSD-1 enzyme is inhibited (NAD+ content, FIG. 1): ≤ 0.5 µM

## N#Cc1c(-c2nccs2)nc(SCc2cccc(C(=O)O)c2)[nH]c1=O [Compound 5]
[2]
  Cytotoxicity Hep-G2: Not Toxic
[7]
  Cytotoxicity AML-12: Not Toxic

## N#Cc1c(-c2ccc(Cl)cc2)nc(SCc2ccc(C(=O)O)cc2)[nH]c1=O [Compound 8]
[2]
  Cytotoxicity Hep-G2: Not Toxic
[7]
  Cytotoxicity AML-12: Not Toxic

## O=C(O)c1cccc(CSc2nc(-c3ccccc3)c(Br)c(=O)[nH]2)c1 [Compound 11]
[2]
  Cytotoxicity Hep-G2: Not Toxic
[7]
  Cytotoxicity AML-12: Not Toxic

## N#Cc1c(-c2cccs2)nc(SCc2cccc(-c3nn[nH]n3)c2)[nH]c1=O [Compound 17]
[10]
  Pgc1a mRNA expression level: dose-dependent increase
  Sod2 (MnSOD) mRNA expression level: dose-dependent increase
[11]
  intra-cellular NAD+ levels: significant and dose-dependent increase; also recorded: increase in NAD^+ levels
[1]; primary hepatocytes
  dose at which effect on SOD2 activity reached a maximum: about 50 nM
[1]
  SOD2 activity: induced in a dose-dependent manner
[2]
  Cytotoxicity Hep-G2: Not Toxic
[4]
  FoxO1 phosphorylation at Ser256: decrease
[6]
  SOD2 activity: induced in a dose-dependent manner
[7]
  Cytotoxicity AML-12: Not Toxic

## N#Cc1c(-c2cccs2)nc(SCc2cccc(CC(=O)O)c2)[nH]c1=O [Compound 18]
[12]; 1 h, added one hour prior to cisplatin, 1 μM to 125 μM
  EC50: 30 µM
[12]; added in combination with cisplatin, 0.01 μM to 100 μM
  EC50: 70 µM
[12]; MDCK cells, cisplatin 50 μM for 16 hrs
  activity of caspase 3/7 induced by cisplatin: decreases, in significant manner

## N#Cc1c(-c2cccs2)nc(SCc2cccc(-c3noc(=O)[nH]3)c2)[nH]c1=O [Compound 19]
[2]
  Cytotoxicity Hep-G2: Not Toxic
[7]
  Cytotoxicity AML-12: Not Toxic
